One assay relates to Mock-Hep3B cells. The assay is described as follows: MTT cell viability assay with sorafenib, Mock-Hep3B cells. The class given is cell-based. Particulars: Homo sapiens, 12000 cells/well, 48 hours, n=3 independent experiments, read-out: calculated IC50 (cell viability). How it is done:
(§1) Human Hep3B hepatocellular carcinoma cells (from ATCC at www.atcc.org/products/all/HB-8064.aspx) were grown in Eagle's minimum essential media (EMEM) supplemented with 10% heat-inactivated FBS, PenStrep (100 units/mL//[…]) and 2mM L-Glutamine.
(§2) Hep3B cells were transduced with either empty lentivirus (MOI=5) or lentivirus harboring CDP (MOI=5). Transduced cells were selected by growth in puromycin (4 μg/mL) to establish stable cell lines of Mock-Hep3B (empty lentivirus) and CDP-Hep3B (lentivirus containing CDP). FIG. 1 is a representative western blot showing the expression of Flag-tagged CDP in CDP-Hep3B cells (“CDP”) and not in Mock-Hep3B cells (“Mock”). […]
(§3) The growth and viability of Mock- and CDP-Hep3B cells were assessed by cell proliferation assay, using the tetrazolium salt 3-[4,5-di-methylthiazol-2yl]-2,5-diphenyl-tetrazolium bromide (MTT) reagent (resources.rndsystems.com/pdfs/datasheets/4890-025-k.pdf). […] Detergent reagent was then added to each well to solubilize the formazan dye prior to measuring the absorbance of each sample in a microplate reader at 570 nm.
(§4) Growth rates of stable cell lines were also obtained in the presence of Sorafenib. […] Cell viability was assessed using the MTT assay after 48 hours as described above.

For another assay, the system named is CDP-Hep3B cells. Nature of the assay: MTT cell viability assay with sorafenib, CDP-Hep3B cells. The class given is cell-based. Particulars: Homo sapiens, 12000 cells/well, 48 hours, n=3 independent experiments, read-out: calculated IC50 (cell viability). The protocol: as §1, §2, §3, §4

Consider `CNC(=O)c1cc(Oc2ccc(NC(=O)Nc3ccc(Cl)c(C(F)(F)F)c3)cc2)ccn1` [sorafenib, Sorafenib], for which the IC50 in the assay on Mock-Hep3B cells was 4.76 ± 0.62 µM; in the assay with CDP-Hep3B cells it was 4.64 ± 0.16 µM.
